In US11812767B2, “Beverage having Reb D and Reb M” (SUNTORY HOLDINGS LIMITED, priority 2018, dated 2023):
Each block holds one compound with its values, some of them ahead of it.

Assays:
[1] = cited from earlier work
[2] = Degradation of Reb D and Reb M in phosphate buffer at 40° C. for 8 weeks, analysed by HPLC; assay type: physicochemical; settings: for % Reb M degradation 2 weeks: 2 weeks at 40° C.; for % Reb M degradation 4 weeks: 4 weeks at 40° C.; for % Reb M degradation 6 weeks: 6 weeks at 40° C.; for % Reb M degradation 8 weeks: 8 weeks at 40° C.
Procedure: A study was carried out as follows, samples were prepared comprising 50 ppm, 150 ppm, 250 ppm and 400 ppm, of Reb D and samples with the following ratios of Reb D:Reb M 1:4, 1:1, 4:1 wherein the total concentration of the sample was 400 ppm. The samples were prepared in phosphate buffer and the pH was adjusted using phosphoric acid. Samples were prepared at the following pH; 2.0, 2.5, 3.0 and 3.5. These samples were incubated at 40° C. for 8 weeks. This incubation protocol should mimic the degradation at room temperature over 6 months. The amount of Reb D and Reb M in each sample at T=0 was calculated by HPLC this was then used to calculate the amount of remaining Reb M in each sample at each specified time point. Aliquots were taken at 2, 4, 6 and 8 weeks and analysed by HPLC to determine the degradation of Reb D and combinations of Reb D and Reb M over the 8 week study.

[3] = pH 2, Reb D 0.008 % w/w + Reb M 0.032 % w/w
[4] = pH 2, Reb D 0.02 % w/w + Reb M 0.02 % w/w
[5] = pH 2, Reb D 0.032 % w/w + Reb M 0.008 % w/w
[6] = pH 2.5, Reb D 0.008 % w/w + Reb M 0.032 % w/w
[7] = pH 2.5, Reb D 0.02 % w/w + Reb M 0.02 % w/w
[8] = pH 2.5, Reb D 0.032 % w/w + Reb M 0.008 % w/w
[9] = pH 3, Reb D 0.008 % w/w + Reb M 0.032 % w/w
[10] = pH 3, Reb D 0.02 % w/w + Reb M 0.02 % w/w
[11] = pH 3, Reb D 0.032 % w/w + Reb M 0.008 % w/w
[12] = pH 3.5, Reb D 0.008 % w/w + Reb M 0.032 % w/w
[13] = pH 3.5, Reb D 0.02 % w/w + Reb M 0.02 % w/w
[14] = pH 3.5, Reb D 0.032 % w/w + Reb M 0.008 % w/w

% Reb M degradation 2 weeks [2, 3]: 28%
% Reb M degradation 4 weeks [2, 3]: 55%
% Reb M degradation 6 weeks [2, 3]: 71%
% Reb M degradation 8 weeks [2, 3]: 80%
% Reb M degradation 2 weeks [2, 4]: 25%
% Reb M degradation 4 weeks [2, 4]: 56%
% Reb M degradation 6 weeks [2, 4]: 69%
% Reb M degradation 8 weeks [2, 4]: 78%
% Reb M degradation 2 weeks [2, 5]: 35%
% Reb M degradation 4 weeks [2, 5]: 59%
% Reb M degradation 6 weeks [2, 5]: 72%
% Reb M degradation 8 weeks [2, 5]: 80%
% Reb M degradation 2 weeks [2, 6]: 3%
% Reb M degradation 4 weeks [2, 6]: 22%
% Reb M degradation 6 weeks [2, 6]: 31%
% Reb M degradation 8 weeks [2, 6]: 38%
% Reb M degradation 2 weeks [2, 7]: 6%
% Reb M degradation 4 weeks [2, 7]: 20%
% Reb M degradation 6 weeks [2, 7]: 29%
% Reb M degradation 8 weeks [2, 7]: 38%
% Reb M degradation 2 weeks [2, 8]: 4%
% Reb M degradation 4 weeks [2, 8]: 18%
% Reb M degradation 6 weeks [2, 8]: 28%
% Reb M degradation 8 weeks [2, 8]: 38%
% Reb M degradation 2 weeks [2, 9]: 0%
% Reb M degradation 4 weeks [2, 9]: 11%
% Reb M degradation 6 weeks [2, 9]: 15%
% Reb M degradation 8 weeks [2, 9]: 17%
% Reb M degradation 2 weeks [2, 10]: 0%
% Reb M degradation 4 weeks [2, 10]: 10%
% Reb M degradation 6 weeks [2, 10]: 14%
% Reb M degradation 8 weeks [2, 10]: 17%
% Reb M degradation 2 weeks [2, 11]: 0%
% Reb M degradation 4 weeks [2, 11]: 7%
% Reb M degradation 6 weeks [2, 11]: 12%
% Reb M degradation 8 weeks [2, 11]: 15%
% Reb M degradation 2 weeks [2, 12]: 0%
% Reb M degradation 4 weeks [2, 12]: 4%
% Reb M degradation 6 weeks [2, 12]: 4%
% Reb M degradation 8 weeks [2, 12]: 6%
% Reb M degradation 2 weeks [2, 13]: 0%
% Reb M degradation 4 weeks [2, 13]: 3%
% Reb M degradation 6 weeks [2, 13]: 4%
% Reb M degradation 8 weeks [2, 13]: 7%
% Reb M degradation 2 weeks [2, 14]: 0%
% Reb M degradation 4 weeks [2, 14]: 0%
% Reb M degradation 6 weeks [2, 14]: 2%
% Reb M degradation 8 weeks [2, 14]: 5%
Compound: C=C1C[C@@]23CC[C@H]4[C@@](C)(CCC[C@@]4(C)C(=O)O[C@@H]4O[C@H](CO)[C@@H](O)[C@H](O[C@@H]5O[C@H](CO)[C@@H](O)[C@H](O)[C@H]5O)[C@H]4O[C@@H]4O[C@H](CO)[C@@H](O)[C@H](O)[C@H]4O)[C@@H]2CC[C@]1(O[C@@H]1O[C@H](CO)[C@@H](O)[C@H](O[C@@H]2O[C@H](CO)[C@@H](O)[C@H](O)[C@H]2O)[C@H]1O[C@@H]1O[C@H](CO)[C@@H](O)[C@H](O)[C@H]1O)C3 [Reb M, rebaudioside M]
Sweetness potency (relative to sucrose) [1]: 200-250

Compound: C=C1C[C@@]23CC[C@H]4[C@@](C)(CCC[C@@]4(C)C(=O)O[C@@H]4O[C@H](CO)[C@@H](O)[C@H](O)[C@H]4O)[C@@H]2CC[C@]1(O[C@@H]1O[C@H](CO)[C@@H](O)[C@H](O[C@@H]2O[C@H](CO)[C@@H](O)[C@H](O)[C@H]2O)[C@H]1O[C@@H]1O[C@H](CO)[C@@H](O)[C@H](O)[C@H]1O)C3 [Rebaudioside A]
Sweetness potency (relative to sucrose) [1]: 200-300

Compound: C=C1C[C@@]23CC[C@H]4[C@@](C)(CCC[C@@]4(C)C(=O)O[C@@H]4O[C@H](CO)[C@@H](O)[C@H](O)[C@H]4O[C@@H]4O[C@H](CO)[C@@H](O)[C@H](O)[C@H]4O)[C@@H]2CC[C@]1(O[C@@H]1O[C@H](CO)[C@@H](O)[C@H](O)[C@H]1O[C@@H]1O[C@H](CO)[C@@H](O)[C@H](O)[C@H]1O)C3 [Rebaudioside E]
Sweetness potency (relative to sucrose) [1]: 174

Compound: C=C1C[C@@]23CC[C@H]4[C@@](C)(CCC[C@@]4(C)C(=O)O[C@@H]4O[C@H](CO)[C@@H](O)[C@H](O)[C@H]4O)[C@@H]2CC[C@]1(O[C@@H]1O[C@H](CO)[C@@H](O)[C@H](O)[C@H]1O)C3 [Rubusoside]
Sweetness potency (relative to sucrose) [1]: 114

Compound: C=C1C[C@@]23CC[C@H]4[C@@](C)(CCC[C@@]4(C)C(=O)O)[C@@H]2CC[C@]1(O[C@@H]1O[C@H](CO)[C@@H](O)[C@H](O)[C@H]1O[C@@H]1O[C@H](CO)[C@@H](O)[C@H](O)[C@H]1O)C3 [Steviolbioside]
Sweetness potency (relative to sucrose) [1]: 90

Compound: C=C1C[C@@]23CC[C@H]4[C@@](C)(CCC[C@@]4(C)C(=O)O[C@@H]4O[C@H](CO)[C@@H](O)[C@H](O)[C@H]4O)[C@@H]2CC[C@]1(O[C@@H]1O[C@H](CO)[C@@H](O)[C@H](O)[C@H]1O[C@@H]1O[C@H](CO)[C@@H](O)[C@H](O)[C@H]1O)C3 [Stevioside]
Sweetness potency (relative to sucrose) [1]: 150-250

Compound: Rebaudioside B
Sweetness potency (relative to sucrose) [1]: 150

Compound: Rebaudioside C
Sweetness potency (relative to sucrose) [1]: 30

Compound: Rebaudioside F
Sweetness potency (relative to sucrose) [1]: 200
